Structures can show the parent of a compound that is named as a salt.
What was measured:
AMPA receptor = assay: Inhibitory action on AMPA-inducing inflow of calcium into nerve cells (Fura2-AM); format: cell-based; conditions: rat cerebral cortex nerve cells on astrocytes, 1 μM MK-801, stimulated by 2 μM AMPA, fluorescence 340/380 nm
Description: The cerebral cortex was excised from the brain of a rat on day 18 after birth and treated with trypsin and DNase, whereby the cells were dispersed. The cells were allowed to float on DMEM containing 10% serum, inoculated into a culture bottle, and their astrocytes were grown. The astrocytes were re-dispersed with trypsin and inoculated onto each well on a 96-well plate. After it was confirmed that the bottom of each well was completely covered with the astrocytes after culture for 1 week, cerebral cortex nerve cells dispersed in the same manner as above were inoculated thereon. After 24 hours, the medium was exchanged with fresh one, and after culture for further 1 week, the medium was exchanged with a medium containing 1 μM MK-801.
The inflow of calcium into the cells was measured using Fura2-AM that is a calcium-sensitive fluorescent pigment. By treating the cells with a Fura2-AM-containing medium for 1 hour, Fura2-AM was incorporated into the cells, and the medium was exchanged with a Tyrode solution containing 1 μM MK-801. After a test compound was added, the cells were stimulated by 2 μM AMPA. The change in the amount of calcium flowing into the cells was measured as a change in the fluorescence intensity at wavelengths of 340/380 nm. The effect of a test compound was evaluated where the reaction caused by AMPA added to the Tyrode solution free of the test compound was used as the control.

male SD rat = assay: Reduction of infarct in a model with occlusion of midbrain/cerebrum arteries; format: in vivo; conditions: from 30 min after occlusion, 6 h, vs solvent only
Description: The cervical region of a 8-week-old male SD rat was cut across the midline, and a right carotid artery was removed. An operation nylon thread (standard 4-0) was inserted into an external carotid artery, and blood stream in the midbrain/cerebrum arteries in the skull was occluded by the nylon thread, whereby a model with occlusion of midbrain/cerebrum arteries was prepared. Thirty minutes after the midbrain/cerebrum arteries were occluded, a test compound or its solvent only was once administered intravenously into the rat, and thereafter, it was continuously administered intravenously at a constant injection rate. The body temperature was controlled at 37.5 to 38.0° from the initiation of administration to the termination of administration. Six hours after the initiation of administration, the brain was excised from the rat and immediately cut into brain sections of 2 mm in thickness, which were then stained with 2% TTC solution. An image of these stained sections was incorporated into NIH image and the area of non-stained portions showing infarct loci was measured, and thereafter, the volume of the infarct loci was calculated.

male ddy mice = assay: Inhibitory action on AMPA-inducing spasm; format: in vivo; conditions: intravenous, 5 minutes before 1.5 nmol AMPA into the ventricle
Description: A test compound or its solvent only was intravenously injected into 4-week-old male ddy mice, and 5 minutes later, 1.5 nmol AMPA was administered into the ventricle thereby inducing spasm. The action of the test chemical was judged by the presence or absence of spasm, and its dose causing 80% or more inhibition was regarded as an effective dose.

AMPA receptor channels = assay: Inhibitory action on AMPA-inducing electric current in nerve cell membrane (patch clamp); format: cell-based; conditions: cultured rat cerebral cortex nerve cells, membrane potential -70 mV, 10 μM AMPA
Description: The action on AMPA receptor channels was examined by a patch clamp method.
The cerebral cortex was excised from the brain of a rat on day 18 after birth and treated with trypsin and DNase, whereby the cells were dispersed. The cells were allowed to float on DMEM containing 10% serum, inoculated into a culture bottle, and their astrocytes were grown. The astrocytes were re-dispersed with trypsin and inoculated onto each well on a 12-well plate.
After it was confirmed that the bottom of each well was completely covered with the astrocytes after culture for 1 week, a cover glass treated with poly-1-lysine was placed thereon, and cerebral cortex nerve cells dispersed in the same manner as above were further inoculated thereon. After 24 hours, the medium was exchanged with fresh one, and after culture for further 1 week, the medium was exchanged with a medium containing 1 μM MK-801.
The membrane potential of the cerebral cortex nerve cells cultured for 9 days or more was fixed at −70 mV by a patch clamp method, and after a test compound was added, 10 μM AMPA was applied as a stimulus to the cells. By using, as the control, electric current flowing via the membrane into the cells in the absence of the test compound, the action of the compound in Example 1 was examined.

## O=C1COC(c2ccccn2)=NN1c1ccccc1 (as salt: hydrochloride) [Example 1, 2-(2-Pyridyl)-4-phenyl-4H-1,3,4-oxadiazine-5(6H)-one hydrochloride]
other
  melting point: 149 to 150 °C

## O=C1COC(c2ccccn2)=NN1c1ccccc1 [Example 1, 2-(2-Pyridyl)-4-phenyl-4H-1,3,4-oxadiazine-5(6H)-one hydrochloride]
AMPA receptor
  IC50: 11.8 µM
Male SD rat; single i.v. 6.6 mg/kg then continuous i.v. 10 mg/kg/h
  reduction of infarct loci in the cerebral cortex: 54%
Male SD rat; single i.v. 20 mg/kg then continuous i.v. 30 mg/kg/h
  reduction of infarct loci in the cerebral cortex: 74%
Male ddy mice
  effective dose (dose causing 80% or more inhibition of spasm): 30 mg/kg
AMPA receptor channels
  IC50: 12.3 µM

## O=C1COC(c2ncccc2O)=NN1c1ccccc1 [Example 14, 2-(3-Hydroxy-2-pyridyl)-4-phenyl-4H-1,3,4-oxadiazine-5(6H)-one]
AMPA receptor
  IC50: 1.56 µM
Male ddy mice
  effective dose (dose causing 80% or more inhibition of spasm): 10 mg/kg

## N#Cc1ccccc1N1N=C(c2ccccc2)OCC1=O [Example 36, 2-Phenyl-4-(2-cyanoeyphenyl)-4H-1,3,4-oxadiazine-5(6H)-one]
AMPA receptor
  IC50: 2.28 µM
Male ddy mice
  effective dose (dose causing 80% or more inhibition of spasm): 10 mg/kg

## CN(C)CCOc1ccccc1C1=NN(c2ccccc2Br)C(=O)CO1.Cl [Example 54, 2-[2-(2-Dimethylamino)ethoxyphenyl]-4-(2-bromophenyl)-4H-1,3,4-oxadiazine-5(6H)-one hydrochloride]
AMPA receptor
  IC50: 4.14 µM
other
  melting point: 169 to 170 °C
Male ddy mice
  effective dose (dose causing 80% or more inhibition of spasm): 30 mg/kg

## CN(C)CCCOc1ccccc1C1=NN(c2ccccc2)C(=O)CO1 [Example 62, 2-[2-(3-Dimethylaminopropoxy)phenyl]-4-phenyl-4H-1,3,4-oxadiazine-5(6H)-one hydrochloride]
AMPA receptor
  IC50: 25.1 µM

## O=C1COC(c2ccccc2OCCCN2CCCCC2)=NN1c1ccccc1 [Example 63, 2-{2-[3-(1-Piperidinyl)propoxy]phenyl}-4-phenyl-4H-1,3,4-oxadiazine-5(6H)-one hydrochloride]
AMPA receptor
  IC50: 24.7 µM

## CN(C)CCOc1ccccc1C1=NN(c2ccccc2F)C(=O)CO1 [Example 66, 2-[2-(2-Dimethylaminoethoxy)phenyl]-4-(2-fluorophenyl)-4H-1,3,4-oxadiazine-5(6H)-one hydrochloride]
AMPA receptor
  IC50: 3.54 µM

## O=C1COC(c2ccccc2OCCN2CCOCC2)=NN1c1ccccc1F [Example 67, 2-{2-[2-(4-Morpholinyl)ethoxy]phenyl}-4-(2-fluorophenyl)-4H-1,3,4-oxadiazine-5(6H)-one hydrochloride]
AMPA receptor
  IC50: 6.62 µM

## Cl.O=C1COC(c2ccccc2OCCN2CCOCC2)=NN1c1ccccc1Br [Example 68, 2-{2-[2-(4-Morpholinyl)ethoxy]phenyl}-4-(2-bromophenyl)-4H-1,3,4-oxadiazine-5(6H)-one hydrochloride]
AMPA receptor
  IC50: 11.1 µM
Male ddy mice
  effective dose (dose causing 80% or more inhibition of spasm): 30 mg/kg

## O=C1COC(c2ccccc2OCCN2CCOCC2)=NN1C1CCCCC1 [Example 69, 2-{2-[2-(4-Morpholinyl)ethoxy]phenyl}-4-cyclohexyl-4H-1,3,4-oxadiazine-5(6H)-one hydrochloride]
AMPA receptor
  IC50: 68.7 µM

## O=C1COC(c2ccccc2OCCN2CCOCC2)=NN1c1ccc(F)cc1 [Example 70, 2-{2-[2-(4-Morpholinyl)ethoxy]phenyl}-4-(4-fluorophenyl)-4H-1,3,4-oxadiazine-5(6H)-one hydrochloride]
AMPA receptor
  IC50: 27.2 µM

## O=C1COC(c2ccccc2OCCN2CCOCC2)=NN1c1ccc(F)cc1F [Example 71, 2-{2-[2-(4-Morpholinyl)ethoxy]phenyl}-4-(2,4-difluorophenyl)-4H-1,3,4-oxadiazine-5(6H)-one hydrochloride]
AMPA receptor
  IC50: 21 µM

## Nc1cccc(C2=NN(c3ccccc3)C(=O)CO2)c1 [Example 78, 2-(3-aminophenyl)-4-phenyl-4H-1,3,4-oxadiazine-5(6H)-one]
AMPA receptor
  IC50: 31.8 µM

## O=C1COC(c2ccccc2)=NN1C1CCOCC1 [Example 80, 2-Phenyl-4-(tetrahydro-4H-pyran-4-yl)-4H-1,3,4-oxadiazine-5(6H)-one]
AMPA receptor
  IC50: 62 µM

## O=C1COC(c2ccccc2)=NN1C1CCN(Cc2ccccc2)CC1 [Example 86, 2-Phenyl-4-(1-benzyl-4-piperidyl)-4H-1,3,4-oxadiazine-5(6H)-one hydrochloride]
AMPA receptor
  IC50: 16.9 µM

## CC(c1ccccn1)N1N=C(c2ccccc2)OCC1=O (centres unmarked) [Example 87, 2-Phenyl-4-[1-(2-pyridyl)ethyl]-4H-1,3,4-oxadiazine-5(6H)-one hydrochloride]
AMPA receptor
  IC50: 25.4 µM

## CC(c1cccnc1)N1N=C(c2ccccc2)OCC1=O (centres unmarked) [Example 88, 2-Phenyl-4-[1-(3-pyridyl)ethyl]-4H-1,3,4-oxadiazine-5(6H)-one oxalate]
AMPA receptor
  IC50: 52.3 µM

## CC(c1ccncc1)N1N=C(c2ccccc2)OCC1=O (centres unmarked) [Example 89, 2-Phenyl-4-[1-(4-pyridyl)ethyl]-4H-1,3,4-oxadiazine-5(6H)-one oxalate]
AMPA receptor
  IC50: 54 µM

## CN(C)c1cccc(C2=NN(c3ccccc3)C(=O)CO2)c1 [Example 90, 2-(3-Dimethylaminophenyl)-4-phenyl-4H-1,3,4-oxadiazine-5(6H)-one]
AMPA receptor
  IC50: 31.4 µM

## CN(C)c1ccccc1C1=NN(c2ccccc2)C(=O)CO1 [Example 91, 2-(2-Dimethylaminophenyl)-4-phenyl-4H-1,3,4-oxadiazine-5(6H)-one]
AMPA receptor
  IC50: 19.1 µM

## O=C1COC(c2ccncc2)=NN1c1ccccc1 [Example 94, 2-(4-Pyridyl)-4-phenyl-4H-1,3,4-oxadiazine-5(6H)-one hydrochloride]
AMPA receptor
  IC50: 98.7 µM

## O=C(Nc1ccccn1)C1=NN(c2ccccc2)C(=O)CO1 [Example 95, N-(2-Pyridyl)-[4-phenyl-4H-1,3,4-oxadiazine-5(6H)-one-2-yl]carboxamide hydrochloride]
AMPA receptor
  IC50: 48.2 µM

## O=C1COC(c2ccccc2)=NN1c1ccccc1Cl [Example 100, 2-Phenyl-4-(2-chlorophenyl)-4H-1,3,4-oxadiazine-5(6)-one]
AMPA receptor
  IC50: 0.8 µM

## O=C1COC(c2ccccc2)=NN1c1c(Cl)cccc1Cl [Example 101, 2-Phenyl-4-(2,6-dichlorophenyl)-4H-1,3,4-oxadiazine-5(6)-one]
AMPA receptor
  IC50: 3.4 µM

## O=C1C(O)SC(c2ccccc2)=NN1c1ccccc1 (centres unmarked) [Example 102, 2,4-Diphenyl-6-hydroxy-4-1,3,4-thiadiazine-5-one]
AMPA receptor
  IC50: 8.2 µM

## CN(CCOc1ccccc1C1=NN(c2ccccc2Br)C(=O)CO1)Cc1ccccc1 [Example 103, 2-{2-[2-(N-Benzyl-N-methyl)amino]ethoxyphenyl}-4-(2-bromophenyl)-4H-1,3,4-oxadiazine-5(6H)-one]
AMPA receptor
  IC50: 4.2 µM

## CNCCOc1ccccc1C1=NN(c2ccccc2Br)C(=O)CO1 [Example 104, 2-[2-(Methylamino)ethoxyphenyl]-4-(2-bromophenyl)-4H-1,3,4-oxadiazine-5(6H)-one]
AMPA receptor
  IC50: 2.7 µM

## O=C1COC(c2ccccn2)=NN1c1ccccc1I [Example 105, 2-(2-Pyridyl)-4-(2-iodophenyl)-4H-1,3,4-oxadiazine-5(6H)-one]
AMPA receptor
  IC50: 1.9 µM

## N#Cc1ccccc1N1N=C(c2ccccn2)OCC1=O [Example 106, 2-(2-Pyridyl)-4-(2-cyanophenyl)-4H-1,3,4-oxadiazine-5(6H)-one]
AMPA receptor
  IC50: 7.3 µM

## CC1(C)OC(c2ccccc2)=NN(c2ccccc2)C1=O [Example 107, 2,4-Diphenyl-6,6-dimethyl-4H-1,3,4-oxadiazine-5-one]
AMPA receptor
  IC50: 6.4 µM

## O=C1C(c2ccccc2)OC(c2ccccc2)=NN1c1ccccc1 (centres unmarked) [Example 108, 2,4,6-triphenyl-4H-1,3,4-oxadiazine-5-one]
AMPA receptor
  IC50: 13.2 µM
